Experiments:
[1] = molecular target: human TYK2 (JH2domain-pseudokinase) (Homo sapiens (Human), UniProt P29597); experiment: TYK2 JH2 Domain Binding Assay (KINOMEscan)
In short: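 The construct was human TYK2 G556–D888 fused to the NFkB DNA-binding domain and expressed in HEK293 cells; unpurified extract was incubated with compound and liganded beads for 1 hour at room temperature.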

[2] = molecular target: Tyk2 kinase domain (DH1) (Homo sapiens (Human), UniProt P29597); experiment: Tyk2 Radioactive Kinase Assay; type: biochemical; conditions: compound at 10 μM, ATP 10 μM; for inhibition at 10 µM: read-out: Tyk2 JH1% Inhibition @ 10 μM
Sequence of Tyk2 kinase domain (DH1) (P29597 897-1176): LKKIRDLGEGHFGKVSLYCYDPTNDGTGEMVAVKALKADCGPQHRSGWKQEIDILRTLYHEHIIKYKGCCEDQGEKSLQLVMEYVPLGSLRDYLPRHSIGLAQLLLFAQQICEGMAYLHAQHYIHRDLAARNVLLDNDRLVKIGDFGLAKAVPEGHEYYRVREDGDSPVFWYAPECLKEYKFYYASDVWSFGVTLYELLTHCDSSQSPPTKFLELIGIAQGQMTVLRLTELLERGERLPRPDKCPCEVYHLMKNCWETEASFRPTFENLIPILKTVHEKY
In short: (§1)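 Single-point screen: 10 μM test compound, radioactive kinase read-out, percent inhibition reported for each kinase domain.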

[3] = molecular target: JAK2 kinase domain (JH1) (Homo sapiens (Human), UniProt O60674); experiment: JAK2 Radioactive Kinase Assay; type: biochemical; conditions: compound at 10 μM, ATP 10 μM; for inhibition at 10 µM: read-out: JAK2 JH1% Inhibition @ 10 μM
Sequence of JAK2 kinase domain (JH1) (O60674 849-1124): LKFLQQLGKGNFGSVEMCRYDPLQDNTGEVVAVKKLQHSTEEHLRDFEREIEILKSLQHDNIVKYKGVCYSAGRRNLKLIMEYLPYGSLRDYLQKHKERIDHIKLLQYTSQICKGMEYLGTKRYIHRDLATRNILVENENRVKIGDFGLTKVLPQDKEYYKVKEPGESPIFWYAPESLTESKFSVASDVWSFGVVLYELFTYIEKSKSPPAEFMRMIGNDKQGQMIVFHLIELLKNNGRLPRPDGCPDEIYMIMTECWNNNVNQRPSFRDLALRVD
In short: as §1

Sequence of human TYK2 (JH2domain-pseudokinase) (P29597 556-888): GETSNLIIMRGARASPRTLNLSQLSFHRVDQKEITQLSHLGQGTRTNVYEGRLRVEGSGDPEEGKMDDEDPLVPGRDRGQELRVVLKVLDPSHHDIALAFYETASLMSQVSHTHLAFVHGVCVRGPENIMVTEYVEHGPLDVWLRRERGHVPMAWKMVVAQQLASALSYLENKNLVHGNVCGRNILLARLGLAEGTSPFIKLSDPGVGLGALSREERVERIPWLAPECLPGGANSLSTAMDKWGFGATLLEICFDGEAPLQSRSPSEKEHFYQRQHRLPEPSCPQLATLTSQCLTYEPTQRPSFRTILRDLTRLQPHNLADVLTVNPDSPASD

Row | Kd [1] | inhibition at 10 µM [2] | inhibition at 10 µM [3] | Structure (SMILES) | Tyk2 JH1% Inhibition @ 10 μM [2] | JAK2 JH1% Inhibition @ 10 μM [3]
1 | < 0.2 nM | < 50% | < 50% | CNc1cc(Nc2cccn([C@@H]3CCCOC3)c2=O)nc2c(C(=O)N[C@@H]3CC[C@H]3O)cnn12 [I-727] |  | 
2 | < 0.2 nM |  |  | CNc1cc(Nc2cccn([C@H]3CCCOC3)c2=O)nc2c(C(=O)N[C@H]3CC[C@H](O)C3)cnn12 [I-728] | A (percent inhibition at 10 μM lower than 50) | A (percent inhibition at 10 μM lower than 50)
3 | 0.2 to 1 nM | < 50% | < 50% | CNc1cc(Nc2cccn(-c3ccccn3)c2=O)nc2c(C(=O)NC[C@@H](C)CO)cnn12 [I-731] |  | 
4 | < 0.2 nM | < 50% | < 50% | CNc1cc(Nc2cccn(-c3nc(C)co3)c2=O)nc2c(C(=O)NC[C@H](C)CO)cnn12 [I-736] |  | 
5 | < 0.2 nM | < 50% | < 50% | CNc1cc(Nc2cccn(-c3ccccn3)c2=O)nc2c(C(=O)N[C@@H]3CC[C@@H]3O)cnn12 [I-743] |  | 
6 | < 0.2 nM | < 50% | < 50% | CNc1cc(Nc2cccn([C@H]3CCCOC3)c2=O)nc2c(C(=O)N[C@H]3CC[C@H]3O)cnn12 [I-745] |  | 
7 | < 0.2 nM | < 50% | < 50% | CNc1cc(Nc2cccn([C@@H]3CCCOC3)c2=O)nc2c(C(=O)N[C@H]3COC[C@H]3O)cnn12 [I-754] |  | 
8 | < 0.2 nM | < 50% | < 50% | CNc1cc(Nc2cccc3ocnc23)nc2c(C(=O)N[C@H]3COC[C@H]3O)cnn12 [I-755] |  | 
9 | < 0.2 nM | < 50% | < 50% | CNc1cc(Nc2cccc(N3CC(O)C3)n2)nc2c(C(=O)N[C@@H]3C[C@@H]3F)cnn12 [I-757] |  | 
10 | < 0.2 nM | < 50% | < 50% | CNc1cc(Nc2cccn([C@H]3CCC[C@H](O)C3)c2=O)nc2c(C(=O)NC3CC3)cnn12 [I-760] |  | 
11 | 0.2 to 1 nM | < 50% | < 50% | CNc1cc(Nc2cccn(C3CCN(C)CC3(F)F)c2=O)nc2c(C(=O)NC3CC3)cnn12 (stereo not drawn) [I-761] |  | 
12 | < 0.2 nM | < 50% | < 50% | CNc1cc(Nc2cccn(-c3ccc(C)nc3)c2=O)nc2c(C(=O)NCC(C)(C)CO)cnn12 [I-767] |  | 

Second part, the compound before the results:

Row | Structure (SMILES) | Kd [1] | inhibition at 10 µM [2] | inhibition at 10 µM [3] | Tyk2 JH1% Inhibition @ 10 μM [2] | JAK2 JH1% Inhibition @ 10 μM [3]
13 | CNc1cc(Nc2cccn([C@H]3CC[C@](C)(OC)CC3)c2=O)nc2c(C(=O)N[C@H]3CC[C@H]3O)cnn12 [I-723, N-((1R,2S)-2-hydroxycyclobutyl)-5-((1-((1R,4R)-4-methoxy-4-methylcyclohexyl)-2-oxo-1,2-dihydropyridin-3-yl)amino)-7-(methylamino)pyrazolo[1,5-a]pyrimidine-3-carboxamide] | 0.2 to 1 nM | < 50% | < 50% |  | 
14 | CNc1cc(Nc2cccn([C@H]3CCCOC3)c2=O)nc2c(C(=O)N[C@@H]3CC[C@@H](O)C3)cnn12 [I-729] | < 0.2 nM | < 50% | < 50% |  | 
15 | CNc1cc(Nc2cccn(-c3ccccn3)c2=O)nc2c(C(=O)NC[C@H](C)CO)cnn12 [I-730] | < 0.2 nM | < 50% | < 50% |  | 
16 | CNc1cc(Nc2cccn([C@@H]3CCCOC3)c2=O)nc2c(C(=O)N[C@H]3CCC[C@H](O)C3)cnn12 [I-734] | 0.2 to 1 nM |  |  | A (percent inhibition at 10 μM lower than 50) | A (percent inhibition at 10 μM lower than 50)
17 | CNc1cc(Nc2cccn([C@@H]3CCCOC3)c2=O)nc2c(C(=O)N[C@@H]3CCC[C@@H](O)C3)cnn12 [I-735] | < 0.2 nM | < 50% | < 50% |  | 
18 | CNc1cc(Nc2cccn(-c3nc(C)co3)c2=O)nc2c(C(=O)NC[C@@H](C)CO)cnn12 [I-737] | < 0.2 nM | < 50% | < 50% |  | 
19 | CNc1cc(Nc2cccn([C@@H]3CCCOC3)c2=O)nc2c(C(=O)N[C@H]3CC[C@H](O)C3)cnn12 [I-738] | 0.2 to 1 nM |  |  | A (percent inhibition at 10 μM lower than 50) | A (percent inhibition at 10 μM lower than 50)
20 | CNc1cc(Nc2cccn([C@@H]3CCCOC3)c2=O)nc2c(C(=O)N[C@@H]3CC[C@@H](O)C3)cnn12 [I-739] | 0.2 to 1 nM | < 50% | < 50% |  | 
21 | CNc1cc(Nc2cc(Cl)cn(C3CCCOC3)c2=O)nc2c(C(=O)N[C@H]3[C@@H]4COC[C@@H]43)cnn12 (stereo partly drawn) [I-741, N-((1R,5S,6r)-3-oxabicyclo[3.1.0]hexan-6-yl)-5-((5-chloro-2-oxo-1-(tetrahydro-2H-pyran-3-yl)-1,2-dihydropyridin-3-yl)amino)-7-(methylamino)pyrazolo[1,5-a]pyrimidine-3-carboxamide] | < 0.2 nM | < 50% | < 50% |  | 
22 | CNc1cc(Nc2cccn([C@@H]3CC[C@H]3O)c2=O)nc2c(C(=O)NC3CC3)cnn12 [I-742] | < 0.2 nM | < 50% | < 50% |  | 
23 | CNc1cc(Nc2cccn([C@H]3CC[C@H](OC)CC3)c2=O)nc2c(C(=O)N[C@H]3COC[C@H]3O)cnn12 [I-746] | 0.2 to 1 nM | < 50% | < 50% |  | 
24 | CNc1cc(Nc2cccc3ocnc23)nc2c(C(=O)NCC3(CO)CC3)cnn12 [I-749] | < 0.2 nM | < 50% | < 50% |  | 
25 | CNc1cc(Nc2cccn([C@@H]3CCCOC3)c2=O)nc2c(C(=O)N[C@@H]3CC[C@@H]3O)cnn12 [I-752] | 0.2 to 1 nM | < 50% | < 50% |  | 
26 | CNc1cc(Nc2cccn([C@H]3CCCOC3)c2=O)nc2c(C(=O)N[C@H]3COC[C@H]3O)cnn12 [I-753] | 0.2 to 1 nM | < 50% | < 50% |  | 
27 | CNc1cc(Nc2cccc(N3CC4(CCO4)C3)n2)nc2c(C(=O)N[C@H]3CC[C@H]3O)cnn12 [I-758] | 0.2 to 1 nM | < 50% | < 50% |  | 
28 | CNc1cc(Nc2cccn(C3CC4(COC4)C3)c2=O)nc2c(C(=O)N[C@H]3CC[C@H]3O)cnn12 [I-763] | < 0.2 nM | < 50% | < 50% |  | 
29 | CNc1cc(Nc2cccn(-c3ccc(C)nc3)c2=O)nc2c(C(=O)NC3CC3)cnn12 [I-765, N-cyclopropyl-5-((6′-methyl-2-oxo-2H-[1,3′-bipyridin]-3-yl)amino)-7-(methylamino)pyrazolo[1,5-a]pyrimidine-3-carboxamide] | < 0.2 nM | < 50% | < 50% |  | 
30 | CNc1cc(Nc2cccn(-c3ccc(C)nc3)c2=O)nc2c(C(=O)N[C@@H]3C[C@@H]3F)cnn12 [I-766] | < 0.2 nM | < 50% | < 50% |  | 
31 | CNc1cc(Nc2cccn(-c3nc(C)co3)c2=O)nc2c(C(=O)N[C@@H]3CC[C@H]3O)cnn12 [I-768] | < 0.2 nM | < 50% | < 50% |  | 
32 | CNc1cc(Nc2cccc3ocnc23)nc2c(C(=O)N[C@H]3CC[C@H]3O)cnn12 [I-771] | 0.2 to 1 nM | < 50% | < 50% |  | 
